Experimental data from ChEMBL document CHEMBL5380779, “Small Molecules Targeting the RNA-Binding Protein HuR Inhibit Tumor Growth in Xenografts” (J Med Chem, 2023).
Active and inactive are the calls of the source. The rule behind the calls is not given here.

Columns and labels:
[1] = biological target: Thrombospondin-1 (Homo sapiens) (UniProt P07996); assay: Inhibition of TGFbeta2-induced THBS1 protein expression in human MDA-MB-231 cells at 10 uM incubated for 48 hrs by Western blotting analysis; format: cell-based
Sequence of Thrombospondin-1 (Homo sapiens) (P07996 19-1170 limits assumed): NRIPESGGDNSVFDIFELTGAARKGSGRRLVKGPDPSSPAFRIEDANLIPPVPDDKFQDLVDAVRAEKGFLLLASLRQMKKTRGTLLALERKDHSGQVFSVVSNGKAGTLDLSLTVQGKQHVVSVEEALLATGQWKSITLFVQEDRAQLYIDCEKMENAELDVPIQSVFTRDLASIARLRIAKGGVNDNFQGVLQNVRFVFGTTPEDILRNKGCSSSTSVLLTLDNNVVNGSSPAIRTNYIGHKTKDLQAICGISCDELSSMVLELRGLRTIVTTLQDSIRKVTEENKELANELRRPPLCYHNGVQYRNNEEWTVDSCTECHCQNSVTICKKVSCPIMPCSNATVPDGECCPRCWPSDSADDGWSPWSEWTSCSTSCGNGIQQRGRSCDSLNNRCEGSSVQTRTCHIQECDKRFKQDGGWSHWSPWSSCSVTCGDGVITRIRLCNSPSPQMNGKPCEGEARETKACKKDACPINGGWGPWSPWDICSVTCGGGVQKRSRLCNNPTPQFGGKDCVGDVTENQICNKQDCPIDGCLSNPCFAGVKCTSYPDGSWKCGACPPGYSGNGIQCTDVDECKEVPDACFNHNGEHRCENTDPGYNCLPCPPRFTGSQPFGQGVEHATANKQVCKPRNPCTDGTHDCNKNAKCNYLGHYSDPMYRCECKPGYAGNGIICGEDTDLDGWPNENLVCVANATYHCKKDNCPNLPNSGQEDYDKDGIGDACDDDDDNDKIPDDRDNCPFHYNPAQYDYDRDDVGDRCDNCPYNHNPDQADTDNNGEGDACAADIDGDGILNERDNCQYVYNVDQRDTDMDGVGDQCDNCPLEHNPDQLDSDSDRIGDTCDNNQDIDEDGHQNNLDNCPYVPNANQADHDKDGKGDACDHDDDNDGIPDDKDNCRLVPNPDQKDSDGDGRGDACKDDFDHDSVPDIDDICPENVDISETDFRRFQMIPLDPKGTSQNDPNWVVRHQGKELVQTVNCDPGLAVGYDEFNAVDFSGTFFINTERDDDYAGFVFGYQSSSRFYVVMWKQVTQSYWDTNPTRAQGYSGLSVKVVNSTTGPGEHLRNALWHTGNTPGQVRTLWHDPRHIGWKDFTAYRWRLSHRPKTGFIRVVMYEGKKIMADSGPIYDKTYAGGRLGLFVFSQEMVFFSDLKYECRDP

[2] = biological target: Thrombospondin-1 (Homo sapiens) (UniProt P07996); assay: Inhibition of TGFbeta1-induced THBS1 protein expression in human MDA-MB-231 cells at 10 uM incubated for 48 hrs by Western blotting analysis; format: cell-based
[3] = biological target: ELAV-like protein 1 (Homo sapiens) (UniProt Q15717); assay: Inhibition of TGFbeta2-induced HuR protein expression in human MDA-MB-231 cells at 10 uM incubated for 48 hrs by Western blotting analysis; format: cell-based
Sequence of ELAV-like protein 1 (Homo sapiens) (Q15717 whole entry): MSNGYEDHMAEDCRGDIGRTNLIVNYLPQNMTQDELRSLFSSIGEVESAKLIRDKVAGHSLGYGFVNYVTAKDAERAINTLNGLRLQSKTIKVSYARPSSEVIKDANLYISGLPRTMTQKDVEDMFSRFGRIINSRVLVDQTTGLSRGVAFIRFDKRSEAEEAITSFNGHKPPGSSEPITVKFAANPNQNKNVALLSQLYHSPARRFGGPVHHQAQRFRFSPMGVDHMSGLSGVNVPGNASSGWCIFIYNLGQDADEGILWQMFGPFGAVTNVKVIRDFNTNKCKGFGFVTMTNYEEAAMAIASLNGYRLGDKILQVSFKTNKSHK

MDA-MB-231 [4] = assay: Inhibition of HuR-TGFB2 mRNA binding in human MDA-MB-231 cells incubated for 6 hrs by RNP immunoprecipitation assay; format: cell-based
[5] = biological target: RNA-binding protein Musashi homolog 2 (Homo sapiens) (UniProt Q96DH6); assay: Inhibition of TGFbeta2-induced Msi2 protein expression in human MDA-MB-231 cells at 10 uM incubated for 48 hrs by Western blotting analysis; format: cell-based
Sequence of RNA-binding protein Musashi homolog 2 (Homo sapiens) (Q96DH6 whole entry): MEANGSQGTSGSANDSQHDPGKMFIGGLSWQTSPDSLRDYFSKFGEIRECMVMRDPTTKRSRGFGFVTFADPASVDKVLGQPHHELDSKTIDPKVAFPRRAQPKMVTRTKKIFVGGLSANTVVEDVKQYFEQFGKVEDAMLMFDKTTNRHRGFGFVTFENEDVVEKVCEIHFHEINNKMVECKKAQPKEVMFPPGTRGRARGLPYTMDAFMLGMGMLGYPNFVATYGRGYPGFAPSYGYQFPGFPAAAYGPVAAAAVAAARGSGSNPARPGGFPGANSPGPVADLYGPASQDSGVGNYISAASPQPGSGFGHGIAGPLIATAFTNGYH

[6] = biological target: ELAV-like protein 1 (Homo sapiens) (UniProt Q15717); assay: Inhibition of TGFbeta1-induced HuR protein expression in human MDA-MB-231 cells at 10 uM incubated for 48 hrs by Western blotting analysis; format: cell-based
[7] = biological target: RNA-binding protein Musashi homolog 2 (Homo sapiens) (UniProt Q96DH6); assay: Inhibition of TGFbeta1-induced Msi2 protein expression in human MDA-MB-231 cells at 10 uM incubated for 48 hrs by Western blotting analysis; format: cell-based
MDA-MB-231 [8] = assay: Cytotoxicity against human MDA-MB-231 cells assessed as inhibition of cell growth by MTT assay; format: functional, cell-based
[9] = Inhibition of full-length HuR-ARE fluorescein-labeled Msi1 mRNA binding (unknown origin) incubated for 2 hrs by fluorescence polarization assay; set-up: species or system Homo sapiens
MDA-MB-231 [10] = assay: Cytotoxicity against HuR knockout 1 human MDA-MB-231 cells assessed as inhibition of cell growth by MTT assay (reference value: 5.320 uM); format: functional, cell-based
MDA-MB-231 [11] = assay: Cytotoxicity against HuR knockout 2 human MDA-MB-231 cells assessed as inhibition of cell growth by MTT assay (reference value: 5.320 uM); format: functional, cell-based
[12] = biological target: ELAV-like protein 1 (Homo sapiens) (UniProt Q15717); assay: Thermal stabilization of HuR in human MDA-MB-231 cells at 20 uM at 42 to 54 degreeC incubated for 1 hr by western blot based cellular thermal shift assay; format: cell-based
MDA-MB-231 [13] = assay: Inhibition of HuR-Bcl-2 mRNA binding in human MDA-MB-231 cells at 10 uM incubated for 6 hrs by RNP immunoprecipitation assay; format: cell-based
MDA-MB-231 [14] = assay: Inhibition of HuR-Msi2 mRNA binding in human MDA-MB-231 cells at 10 uM incubated for 6 hrs by RNP immunoprecipitation assay; format: cell-based
MDA-MB-231 [15] = assay: Inhibition of HuR-XIAP mRNA binding in human MDA-MB-231 cells at 10 uM incubated for 6 hrs by RNP immunoprecipitation assay; format: cell-based
MDA-MB-231 [16] = assay: Inhibition of HuR-16-nt biotinylated ARE Msi1 mRNA binding in human MDA-MB-231 cells at 20 uM by Western blotting analysis based pull-down assay; format: cell-based
MDA-MB-231 [17] = assay: Downregulation of Bcl-2 protein expression in human MDA-MB-231 cells incubated for 48 hrs by Western blotting analysis; format: functional, cell-based; conditions: dose 5-10 µM
MDA-MB-231 [18] = assay: Downregulation of Msi2 protein expression in human MDA-MB-231 cells incubated for 48 hrs by Western blotting analysis; format: functional, cell-based; conditions: dose 5-10 µM
MDA-MB-231 [19] = assay: Downregulation of XIAP protein expression in human MDA-MB-231 cells incubated for 48 hrs by Western blotting analysis; format: functional, cell-based; conditions: dose 5-10 µM
MDA-MB-231 [20] = assay: Downregulation of HuR protein expression in human MDA-MB-231 cells at 5 to 10 uM incubated for 48 hrs by Western blotting analysis; format: functional, cell-based; conditions: dose 5-10 µM
MDA-MB-231 [21] = assay: Inhibition of cell invasion of human MDA-MB-231 cells at 10 uM incubated for 24 hrs by crystal violet staining based analysis; format: functional
MDA-MB-231 [22] = assay: Inhibition of HuR-TGFB2 mRNA binding in human MDA-MB-231 cells assessed as half life of TGFB2 in presence of actinomycin D (reference value: 7.202 hrs); format: cell-based
[23] = Antitumor activity against human 2LMP cells xenografted athymic NCr-nu/nu mouse assessed as tumor growth inhibition at 50 mg/kg, ip administered 5 times a week for 3 weeks; format: functional; conditions: 504 h, read-out: TGI
[24] = Toxicity in athymic NCr-nu/nu mouse xenografted with human 2LMP cells assessed as effect on body weight gain at 50 mg/kg, ip administered 5 times a week for 3 weeks; format: organism-based; conditions: in vivo, 504 h
MDA-MB-231 [25] = assay: Antitumor activity against human MDA-MB-231 cells xenografted athymic NCr-nu/nu mouse assessed as reduction in tumor size at 50 mg/kg, ip administered 5 times a week for 3 weeks; format: functional, organism-based
MDA-MB-231 [26] = assay: Antitumor activity against human MDA-MB-231 cells xenografted athymic NCr-nu/nu mouse assessed as reduction in tumor size at 50 mg/kg, ip administered 5 times a week for 3 weeks in presence of docetaxel; format: functional, organism-based
MDA-MB-231 [27] = assay: Antitumor activity against human MDA-MB-231 cells xenografted athymic NCr-nu/nu mouse assessed as tumor growth delay by measuring tumor size at 400 mm^3 at 50 mg/kg, ip administered 5 times a week for 3 weeks (reference value: 15 days); format: functional
MDA-MB-231 [28] = assay: Antitumor activity against human MDA-MB-231 cells xenografted athymic NCr-nu/nu mouse assessed as tumor growth delay by measuring tumor size at 400 mm^3 at 50 mg/kg, ip administered 5 times a week for 3 weeks in presence of docetaxel (reference value: 15 days); format: functional
MDA-MB-231 [29] = assay: Inhibition of HuR-THBS1 mRNA binding in human MDA-MB-231 cells incubated for 6 hrs by RNP immunoprecipitation assay; format: cell-based
MDA-MB-231 [30] = assay: Inhibition of HuR-THBS1 mRNA binding in human MDA-MB-231 cells assessed as half life of THBS1 in presence of actinomycin D (reference value: 10.46 hrs); format: cell-based
MDA-MB-231 [31] = assay: Downregulation of TGFB2 mRNA expression in human MDA-MB-231 cells transfected with THBS1-ORF at 5 to 10 uM incubated for 24 hrs; format: functional, cell-based; conditions: dose 5-10 µM

inhibition [1]: Active
inhibition [2]: Active
inhibition [3]: Active
inhibition [5]: Active
inhibition [6]: Active
inhibition [7]: Active
IC50 [9]: 2.77 µM
Ki [9]: 0.65 µM
Activity [12]: Active
SMILES: CC(C)(C)c1ccc(C(=O)Nc2ccc3[nH]c(C(=O)NO)cc3c2)cc1
inhibition (MDA-MB-231 [4]): Active
IC50 (MDA-MB-231 [8]): 4.74 µM
IC50 (MDA-MB-231 [10]): 16.1 µM
IC50 (MDA-MB-231 [11]): 12.5 µM
inhibition (MDA-MB-231 [13]): Active
inhibition (MDA-MB-231 [14]): Active
inhibition (MDA-MB-231 [15]): Active
inhibition (MDA-MB-231 [16]): Active
Activity (MDA-MB-231 [17]): Dose-Dependent Effect
Activity (MDA-MB-231 [18]): Dose-Dependent Effect
Activity (MDA-MB-231 [19]): Dose-Dependent Effect
Activity (MDA-MB-231 [20]): inactive
inhibition (MDA-MB-231 [21]): Active
T1/2 (MDA-MB-231 [22]): 4.76 h
inhibition in vivo at 50 mg/kg [23]: 35%
Activity [24]: Non-Toxic
Activity (MDA-MB-231 [25]): Active
Activity (MDA-MB-231 [26]): Active
Time (MDA-MB-231 [27]): 18 days
Time (MDA-MB-231 [28]): 32 days
inhibition (MDA-MB-231 [29]): Active
T1/2 (MDA-MB-231 [30]): 6.15 h
Activity (MDA-MB-231 [31]): Active
